Source: patent US7612225B2, “Crystal of triterpene derivative” (Shionogi & Co., Ltd., priority 2004, dated 2009)

Experiments:
[1] = Storage stability (40° C., 75% RH, 6 months; HPLC); assay type: physicochemical
Protocol: The form I dry crystals and the form II crystals of Compound (I) were used as samples. About 3 g of each of the samples was placed in a double polyethylene bag, and the bag containing the sample was stored in an aluminum can at 40° C. and 75% RH. After storage for 6 months, the amount of Compound (I) and the total amount of related substances of Compound (I) were measured by HPLC.

[2] = Stability against light (30±2° C., 1,200,000 or 3,600,000 Lux·hr; HPLC); assay type: physicochemical; conditions: for change of total amount of related substances of Compound (I) (in words): after storage under light of 1,200,000 or 3,600,000 Lux·hr
Protocol: The form I dry crystals and the form II crystals of Compound (I) were used as samples. About 3 g of each of the samples was placed in each petri dish, and was then stored at an average temperature of 30±2° C. under light of 1,200,000 Lux·hr or 3,600,000 Lux·hr. After storage, the amount of Compound (I) and the total amount of related substances of Compound (I) were measured by HPLC.

[3] = 6 months at 40° C. and 75% RH, double polyethylene bag in aluminum can
[4] = 1,200,000 Lux·hr, 30±2° C., petri dish

| Compound | Amount of analogue B ([1]; 6 months at 40° C. and 75% RH) | Total amount of related substances(%) ([1]; 6 months at 40° C. and 75% RH) | storage stability (in words) ([1]; 6 months at 40° C. and 75% RH) | Amount of Compound (I)(%) [1, 3] | Amount of Compound (I)(%) ([1]; Initial value) | Amount of analogue B ([1]; Initial value) | Total amount of related substances(%) ([1]; Initial value) | change of total amount of related substances of Compound (I) (in words) ([1]; after storage for 6 months at 40° C. and 75% RH, listed as form II crystals) | Total amount of related substances(%) ([2]; 1,200,000 Lux·hr, 30±2° C.) | Amount of Compound (I)(%) [2, 4] | Total amount of related substances(%) ([2]; 3,600,000 Lux·hr, 30±2° C.) | Amount of Compound (I)(%) ([2]; 3,600,000 Lux·hr, 30±2° C., petri dish) | Amount of Compound (I)(%) ([2]; Initial value) | Total amount of related substances(%) ([2]; Initial value) | change of total amount of related substances of Compound (I) (in words) ([2]; listed as form II crystals) | stability against light (in words) ([2]; light of 1,200,000 or 3,600,000 Lux·hr) | change of amount of analogue B (in words) ([1]; after storage for 6 months at 40° C. and 75% RH) | change of total amount of related substances of Compound (I) (in words) ([1]; after storage for 6 months at 40° C. and 75% RH, listed as form I dry crystals) | change of total amount of related substances of Compound (I) (in words) ([2]; listed as form I dry crystals) |
| --- | --- | --- | --- | --- | --- | --- | --- | --- | --- | --- | --- | --- | --- | --- | --- | --- | --- | --- | --- |
| CC1(C)CC[C@]2(C(=O)O)CC[C@]3(COC(=O)/C=C/c4cc(O)ccc4NC(=O)/C=C/C(=O)O)C(=CCC4[C@@]5(C)CCC(=O)C(C)(C)C5CC[C@]43C)C2C1 (some centres unmarked) [Form II crystal] | <0.05% | 0.17% | stable | 98.6% | 98.9% | <0.05% | 0.21% | hardly changed | 0.17% | 99.4% | 0.18% | 99.3% | 100.3% | 0.15% | hardly changed | stable against light | – | – | – |
| CC1(C)CC[C@]2(C(=O)O)CC[C@]3(COC(=O)/C=C/c4cc(O)ccc4NC(=O)/C=C/C(=O)O)C(=CCC4[C@@]5(C)CCC(=O)C(C)(C)C5CC[C@]43C)C2C1 (some centres unmarked) [Form I dry crystal, reference compound] | 0.21% | 0.43% | – | 97.8% | 99.8% | <0.05% | 0.16% | – | 0.27% | 99.2% | – | – | 99.8% | 0.16% | – | – | significantly increased | increased | increased |
